The values that follow come from publication PMC8380656, “The structure and flexibility analysis of the Arabidopsis synaptotagmin 1 reveal the basis of its regulation at membrane contact sites” (Life Science Alliance, 2021).

As usually defined, the stoichiometry N is the number of molecules, sites or subunits per partner or assembly.

The target in data set [1] is T1, SYT1C2A (Arabidopsis thaliana, UniProt Q9SKR2).
T1 construct: gene SYT1; C2A domain, residues K253-E397; pGEX6P1, GST tag cleaved with PreScission protease; expressed in E. coli Rosetta 2 (DE3) pLysS
T1 sequence (Q9SKR2 253-397): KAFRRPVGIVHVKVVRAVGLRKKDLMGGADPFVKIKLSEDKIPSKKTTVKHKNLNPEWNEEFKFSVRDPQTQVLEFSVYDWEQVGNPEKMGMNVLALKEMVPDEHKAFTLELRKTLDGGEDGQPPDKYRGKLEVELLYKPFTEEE
The data set is described as follows: thermal shift, label-free nanoDSF (Tycho NT.[…]). In kind it is binding. The following applies: 58 μM ligand, 5.8 μM protein, 20 μM EGTA, Tris-HCl pH 8.0; absolute inflexion temperature, unbound control 57.4 ± 0.5; polybasic site. For orientation: In DSF a fluorescence change marks the thermal transition of the protein.

Data set [2] deals with the molecule itself. The experiment in a line: SAXS (SEC-SAXS); 45 ul of SYT1SMPC2A at 6.6 mg ml^-1 injected onto Superdex 200 increase 3.2/300 at 20°C; 20 mM Tris pH 8, 100 mM NaCl, 5% glycerol, 2 mM DTT; molecular mass from the Porod volume.

Turning to `O=P(O)(O)O[C@H]1[C@H](OP(=O)(O)O)[C@@H](OP(=O)(O)O)[C@@H](O)[C@@H](O)[C@@H]1OP(=O)(O)O` [IP(3,4,5,6), inositol 3,4,5,6-tetraphosphate], the SYT1C2A in data set [1] was 65.2 ± 0.4 °C.

With `O=P(O)(O)O[C@@H]1[C@H](O)[C@H](O)[C@@H](OP(=O)(O)O)[C@H](OP(=O)(O)O)[C@H]1O` [IP3, inositol 1,4,5-trisphosphate], the SYT1C2A in data set [1] turned out to be 62.60 ± 0.05 °C.

Consider `O=P(O)(O)O[C@@H]1[C@@H](OP(=O)(O)O)[C@H](OP(=O)(O)O)[C@@H](O)[C@@H](O)[C@H]1OP(=O)(O)O` [IP(1,4,5,6), inositol 1,4,5,6-tetraphosphate], for which, in data set [1], the SYT1C2A amounted to 62.6 ± 0.2 °C.

`O=P(O)(O)O[C@H]1[C@H](O)[C@@H](O)[C@H](OP(=O)(O)O)[C@@H](O)[C@H]1O` [IP2, inositol 1,4-biphosphate]: the SYT1C2A in data set [1] was determined as 59.4 ± 0.2 °C.

With `O=P(O)(O)O[C@H]1[C@H](O)[C@@H](O)[C@H](OP(=O)(O)O)[C@@H](OP(=O)(O)O)[C@H]1O` [IP(1,3,4), inositol 1,3,4-trisphosphate], the SYT1C2A in data set [1] was 64.2 ± 0.1 °C.

B1: SYT1-SMPC2A (Arabidopsis synaptotagmin 1, SMP and C2A domains, residues N34-E397) (domain or fragment, UniProt Q9SKR2 34-397, looked up)
chain: NDVKDPEIRSIADQDPKAMLRMLPEIPLWVKNPDFDRVDWINRFLEYMWPYLDKAICKTAKNIAKPIIEEQIPKYKIDSVEFETLTLGSLPPTFQGMKVYLTDEKELIMEPCLKWAANPNILVAIKAFGLKATVQVVDLQVFAQPRITLKPLVPSFPCFANIYVSLMEKPHVDFGLKLGGADLMSIPGLYRFVQEQIKDQVANMYLWPKTLVVPILDPAKAFRRPVGIVHVKVVRAVGLRKKDLMGGADPFVKIKLSEDKIPSKKTTVKHKNLNPEWNEEFKFSVRDPQTQVLEFSVYDWEQVGNPEKMGMNVLALKEMVPDEHKAFTLELRKTLDGGEDGQPPDKYRGKLEVELLYKPFTEEE
notes: Expressed from pGEX6P1; also called SMP2C2A; source: E. coli Rosetta 2 (DE3) pLysS, purified (Glutathione Sepharose 4B, GST cleaved with Precission protease, Superdex 200)
As for B1, the “stoichiometry N” value in data set [2] was 2.
